Measured values from US10933053B2, “Treating infections with ceftolozane/tazobactam in subjects having impaired renal function” (MERCK SHARP & DOHME CORP., priority 2013, dated 2021).
Where “and” joins values, the source holds several entries; their conditions need not be identical. Identical values can stand only once. Like-named read-outs stand apart in the source and are kept apart here.

Assays:
[1] = set-up: species or system human
Description: Phoenix™ Non Linear Mixed Effects (NLME) version 1.2 (Pharsight Corporation, Certara USA, Inc., 9666 Olive Blvd., Suite 425, St. Louis, Mo. 63132 USA) with the extended least squares first order conditional estimation (FOCE-ELS) was used for population PK modeling and SAS® 9.3 (SAS Institute Inc., 100 SAS Campus Drive, Cary, N.C. 27513-2414, USA) with finite element method (FEM) was used for Monte Carlo simulation. R (2.15.0) and SAS® 9.3 were used for data management, statistical summaries and table/figures generation.
No other structural model was further tested unless necessary. Ceftolozane or tazobactam plasma concentration-time data with hemodialysis were then included and hemodialysis was tested as a covariate effect on both clearance and volume of distribution for the central compartment. The final model was selected based on the stability of the model, reliability and interpretability of the parameter estimates and the goodness-of-fit plots.
The population PK model for ceftolozane was developed via a 2-step process. First, the ceftolozane plasma concentrations without hemodialysis (first dose) were modeled and best described with a 2-compartment disposition model (FIG. 15) plus a proportional residual error model. The between-subject variability was reliably estimable on all four PK parameters CL, Vc, CL2 and V2. When the ceftolozane plasma concentrations following the second dose with hemodialysis were included, the above model, with the addition of a dichotomous covariate and a between-subject variability for the effect of hemodialysis, was the best to fit the combined data.
Similar to ceftolozane, tazobactam plasma concentrations without hemodialysis (first dose) were first modeled and well described with a 2-compartment disposition model (FIG. 15) plus a proportional residual error model. The between-subject variability was reliably estimable on all four PK parameters CL, Vc, CL2 and V2. When the tazobactam plasma concentrations following the second dose were included, the model with hemodialysis evaluated as a dichotomous covariate with a between-subject variability was the best to fit all the combined data. […] (17)
Ceftolozane/tazobactam plasma concentrations collected from 6 patients with ESRD following a single dose without hemodialysis and a second dose with hemodialysis were used to develop a population PK model (Phoenix™ Non Linear Mixed Effects [NLME]).
A 2-compartment disposition model was used to fit the ceftolozane or tazobactam plasma concentration-time data without hemodialysis and to test the between-subject variability and residual variability. Ceftolozane or tazobactam plasma concentration-time data with hemodialysis were then included and hemodialysis was tested as a covariate effect on both clearance and volume of distribution for the central compartment.

clinical [2] = settings: both, human, in vivo, 750 mg
Procedure: This was a Phase 1, multicenter, prospective, open-label study of 750 mg ceftolozane/tazobactam (as CXA-201) administered IV in male and female adult subjects with severe renal impairment (estimated CLCR<30 mL/min) and subjects with end-stage renal disease (ESRD) on hemodialysis (HD). The primary objective of the study was to determine the PK profile of ceftolozane/tazobactam in subjects with severe renal impairment and subjects with ESRD on HD and to determine the effect of HD on the clearance of ceftolozane/tazobactam.
Subjects with severe renal impairment received a single IV 1-hour infusion of 750 mg ceftolozane/tazobactam on Day 1. […] Subjects in this cohort received an IV dose of 750 mg ceftolozane/tazobactam as a 1 hour infusion immediately after their first HD session on Day 1 (post dialysis, approximately 72 hours prior to the next HD session) and a second dose of ceftolozane/tazobactam approximately 2 hours before their second HD session on Day 4 of the study. Infusion of ceftolozane/tazobactam was completed approximately 1 hour before the start of HD.
Subjects in both cohorts had urine (if not anuric) and plasma samples collected for determination of levels of ceftolozane, tazobactam and the M1 metabolite of tazobactam; subjects in the ESRD on HD cohort also had dialysate fluid samples collected for PK assessment. Plasma, urine, and dialysate levels of ceftolozane, tazobactam, and its metabolite M1 collected over a prespecified interval were determined by LC/MS/MS assay.

clinical [3] = settings: human, in vivo
Description: The most common adverse reactions (≥5% in either indication) occurring in patients receiving CXA-201 were nausea, headache and diarrhea. Table 3 lists adverse reactions occurring in ≥1.0% of patients receiving CXA-201 in Phase 3 clinical trials.
The majority of adverse events were mild to moderate in severity, and the incidence of treatment-limiting adverse events was <2% in both treatment groups. Epidemiology and susceptibility of organisms isolated from patients with cUTI.

P. aeruginosa = settings: neutropenic murine-thigh infection model; cited from earlier work
[4] = threshold = 1/2 of the TOL/TAZ MIC; cited from earlier work
human plasma proteins = test: Binding to human plasma proteins; type: in vitro ADME

| SMILES | BSV % (RSE %) of CL ([1]; ESRD) | BSV % (RSE %) of V2 ([1]; ESRD) | BSV % (RSE %) of log-scale coefficient of hemodialysis on CL ([1]; ESRD) | Log-scale coefficient of hemodialysis on CL, mean estimate ([1]; ESRD) | Log-scale coefficient of hemodialysis on Vc, mean estimate ([1]; ESRD) | increase of CL by HD ([1]; ESRD) [fold] | increase of Vc by HD ([1]; ESRD) [fold] | V2, volume of distribution for peripheral compartment, mean estimate ([1]; human) | apparent terminal half-life ([1]; human) | apparent volume of distribution for the central compartment with hemodialysis ([1]; human) | clearance with hemodialysis ([1]; human) | half-life ([1]; human) | other results |
| --- | --- | --- | --- | --- | --- | --- | --- | --- | --- | --- | --- | --- | --- |
| Cn1c(N)c(NC(=O)NCCN)c[n+]1CC1=C(C(=O)O)N2C(=O)[C@@H](NC(=O)/C(=N\OC(C)(C)C(=O)O)c3nsc(N)n3)[C@H]2SC1 [Ceftolozane, (6R,7R)-3-[(5-amino-4-{[(2-aminoethyl)carbamoyl]amino}-1-methyl-1H-pyrazol-2-ium-2-yl)methyl]-7-({(2Z)-2-(5-amino-1,2,4-thiadiazol-3-yl)-2-[(1-carboxy-1-methylethoxy)imino]acetyl}amino)-8-oxo-5-thia-1-azabicyclo[4.2.0]oct-2-ene-2-carboxylate] | 52.2 (29.2) % | 48.4 (29.9) % | 69.6 (29.8) % | 4.09 and 4.1 | 1.54 and 1.5 | 60 | 4.7 | 11.8 | about 40 hours | about 28 L | about 20 L/hr | about 2 hours | BSV % (RSE %) of CL2 ([1]; ESRD): 35.9 (41.9) %; BSV % (RSE %) of log-scale coefficient of hemodialysis on Vc ([1]; ESRD): 40.0 (34.7) %; Vc, volume of distribution for central compartment, mean estimate ([1]; human): 6 FIXED L; AUC(0-inf) (clinical [2]): 537 µg·h/mL; AUC(0-t) (clinical [2]): 511 µg·h/mL; Vd (clinical [2]): 13.8 L; clearance (clinical [2]): 16.7 mL/min; half-life (clinical [2]): 11.1 h; AUC (clinical [3]): 1100 µg·h/mL; daily AUC previously shown to be safe and tolerable in humans (clinical [3]): 1100 µg·h/mL; free-drug % T>MIC target associated with 1-log10 CFU reduction from baseline (bactericidal, 1-log kill) (P. aeruginosa): 32.2%; free-drug % T>MIC target associated with net bacterial stasis (P. aeruginosa): 24.8% |
| C[C@]1(Cn2ccnn2)[C@H](C(=O)O)N2C(=O)C[C@H]2S1(=O)=O [Tazobactam, tazobactam] | 142 (29.3) % | 24.3 (39.8) % | 29 (31.4) % | 1.89 and 1.9 | 0.434 and 0.43 | 6.6 | 1.5 | 6.55 | about 4 hours | about 16 L | about 20 L/hr | about 1 hours | BSV % (RSE %) of Vc ([1]; ESRD): 398 (34.3) %; free-drug % T>threshold target [4]: 65.9; binding to human plasma proteins (human plasma proteins): ~30% |
